This is an account of results in PubChem BioAssay AID1919004 (Molecular Pharmacology Branch, DTP, NCI, 2023).

The IC50 is the point on the concentration scale where inhibition reaches its midpoint. In general, viability, T/C refers to the ratio of treated to control.

The test system of this assay is 883617-216-R-J1-PDC complex spheroids, growth, % test/control. Kind of assay: Anticancer human tumor 883617-216-R-J1-PDC patient-derived bladder carcinoma cell line growth inhibition [AhR]. The note with it: for viability, T/C: stronger effect = lower value. The gist of the method: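 Agents were dosed in half-log steps down from roughly clinical Cmax, or from 10 microM where Cmax was unknown, alone and with AhR antagonists. Read-out: percent test/control growth of tumor spheroids containing HUVEC and MSC stromal cells.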

The mark [1] stands for this setting: curve of first compound, second compound 0.1 µM.
The mark [2] stands for this setting: curve of first compound, second compound 0.316 µM.
Where [3] appears, read: curve of first compound, second compound 1 µM.
Where [4] appears, read: curve of first compound, second compound 3.16 µM.
[5] abbreviates: curve of first compound, second compound 10 µM.
Setting [6] is: second compound 0.1 µM, first compound 0.0316 µM.
Where [7] appears, read: second compound 0.1 µM, first compound 0.1 µM.
Setting [8] is: second compound 0.1 µM, first compound 0.316 µM.
The mark [9] stands for this setting: second compound 0.1 µM, first compound 1 µM.
[10] abbreviates: second compound 0.1 µM, first compound 3.16 µM.
[11] abbreviates: second compound 0.1 µM, first compound 10 µM.
Setting [12] is: second compound 0.316 µM, first compound 0.0316 µM.
Where [13] appears, read: second compound 0.316 µM, first compound 0.1 µM.
Setting [14] is: second compound 0.316 µM, first compound 0.316 µM.
The mark [15] stands for this setting: second compound 0.316 µM, first compound 1 µM.
The mark [16] stands for this setting: second compound 0.316 µM, first compound 3.16 µM.
The mark [17] stands for this setting: second compound 0.316 µM, first compound 10 µM.
Where [18] appears, read: second compound 1 µM, first compound 0.0316 µM.
[19] abbreviates: second compound 1 µM, first compound 0.1 µM.
Where [20] appears, read: second compound 1 µM, first compound 0.316 µM.
Where [21] appears, read: second compound 1 µM, first compound 1 µM.
Where [22] appears, read: second compound 1 µM, first compound 3.16 µM.
[23] abbreviates: second compound 1 µM, first compound 10 µM.
The mark [24] stands for this setting: second compound 3.16 µM, first compound 0.0316 µM.
Setting [25] is: second compound 3.16 µM, first compound 0.1 µM.
Where [26] appears, read: second compound 3.16 µM, first compound 0.316 µM.
[27] abbreviates: second compound 3.16 µM, first compound 1 µM.
Setting [28] is: second compound 3.16 µM, first compound 3.16 µM.
[29] abbreviates: second compound 3.16 µM, first compound 10 µM.
Setting [30] is: second compound 10 µM, first compound 0.0316 µM.
The mark [31] stands for this setting: second compound 10 µM, first compound 0.1 µM.
[32] abbreviates: second compound 10 µM, first compound 0.316 µM.
Where [33] appears, read: second compound 10 µM, first compound 1 µM.
The mark [34] stands for this setting: second compound 10 µM, first compound 3.16 µM.
[35] abbreviates: second compound 10 µM, first compound 10 µM.
The mark [36] stands for this setting: second compound 0.1 µM, first compound 0.00316 µM.
Setting [37] is: second compound 0.1 µM, first compound 0.01 µM.
Where [38] appears, read: second compound 0.316 µM, first compound 0.00316 µM.
Where [39] appears, read: second compound 0.316 µM, first compound 0.01 µM.
Setting [40] is: second compound 1 µM, first compound 0.00316 µM.
Where [41] appears, read: second compound 1 µM, first compound 0.01 µM.
[42] abbreviates: second compound 3.16 µM, first compound 0.00316 µM.
[43] abbreviates: second compound 3.16 µM, first compound 0.01 µM.
Where [44] appears, read: second compound 10 µM, first compound 0.00316 µM.
Where [45] appears, read: second compound 10 µM, first compound 0.01 µM.

Values joined by “and” are separate entries in the source; they are usually repeats but may differ in a detail not shown here. Equal entries are not always repeated.
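Note: exposure lasted 7 days after dosing on day 3 of spheroid growth.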

For the molecule `COc1cc(C2c3cc4c(cc3C(OC3OC5COC(C)OC5C(O)C3O)C3COC(=O)C23)OCO4)cc(OC)c1O` (centres undefined) + Cc1ccccc1N=Nc1ccc(NC(=O)c2ccnn2C)c(C)c1, the concentration for half-maximal inhibition (IC50) is, setting by setting: under setting [1], greater than 10000 nM; under setting [2], greater than 10000 nM; under setting [3], greater than 10000 nM; under setting [4], greater than 10000 nM; under setting [5], greater than 10000 nM. Besides, the viability, T/C under setting [6] was 86.4%; the viability, T/C under setting [7] was 83.5%; the viability, T/C under setting [8] is 69.7%; the viability, T/C under setting [9] was 68%; the viability, T/C under setting [10] is 69.5%; the viability, T/C under setting [11] is 57.4%. Also, the viability, T/C under setting [12] is 80.8%; the viability, T/C under setting [13] is 86.7%; the viability, T/C under setting [14] was 77.3%; the viability, T/C under setting [15] was 69%; the viability, T/C under setting [16] was 70.2%; the viability, T/C under setting [17] was 57.6%. In addition, the viability, T/C runs as follows: under setting [18], 80.7%; under setting [19], 82%; under setting [20], 75.7%; under setting [21], 64.6%; under setting [22], 72.1%; under setting [23], 54.2%. Further, the viability, T/C was 73% under setting [24]; 72.7% under setting [25]; 71.1% under setting [26]; 61.2% under setting [27]; 70.9% under setting [28]; 56.4% under setting [29]. For the same molecule, the viability, T/C by setting is: under setting [30], 67.8%; under setting [31], 77.5%; under setting [32], 73.2%; under setting [33], 65.6%; under setting [34], 63.5%; under setting [35], 57.1%.
In the case of `CC1COCCN1c1cc(-c2ccnn2C)c2ccnc(-c3ccn[nH]3)c2n1` (centres undefined) + Cc1cncc(-c2nc(NCCc3c[nH]c4ccccc34)c3ncn(C(C)C)c3n2)c1, the IC50 by setting is: under setting [1], greater than 1000 nM; under setting [2], greater than 1000 nM; under setting [3], greater than 1000 nM; under setting [4], greater than 1000 nM; under setting [5], less than 3.16 nM. The viability, T/C is 94.9% under setting [36]; 92.8% under setting [37]; 83.7% under setting [6]; 76.5% under setting [7]; 61.5% under setting [8]; 53.9% under setting [9]. For the same molecule, the viability, T/C runs as follows: under setting [38], 101%; under setting [39], 103%; under setting [12], 98.5%; under setting [13], 77.3%; under setting [14], 60.2%; under setting [15], 54.5%. For the same molecule, the viability, T/C was 96.1% under setting [40]; 107% under setting [41]; 95.9% under setting [18]; 76% under setting [19]; 70.3% under setting [20]; 60.5% under setting [21]. Besides, the viability, T/C by setting is: under setting [42], 115%; under setting [43], 113%; under setting [24], 117%; under setting [25], 87.6%; under setting [26], 72.7%; under setting [27], 55.9%. Moreover, the viability, T/C under setting [44] is 45.3%; the viability, T/C under setting [45] is 50.8%; the viability, T/C under setting [30] was 51.5%; the viability, T/C under setting [31] was 39.8%; the viability, T/C under setting [32] is 30.9%; the viability, T/C under setting [33] is 27.4%.
With `CC(C)c1c(-c2ccccc2)nc2c(C#N)c[nH]n2c1=O`, the viability, T/C reads like this: (compound 0.0316 µM) 101% and 93.4% and 95%; (compound 0.1 µM) 107% and 97.3% and 110%; (compound 0.316 µM) 109% and 96% and 82.6%; (compound 1 µM) 98.6% and 98% and 68.8%; (compound 3.16 µM) 110% and 100% and 82.2%; (compound 10 µM) 105% and 102% and 77.7%. Also, the IC50 (curve of compound) was greater than 10000 nM.
As to `Cc1ccccc1N=Nc1ccc(NC(=O)c2ccnn2C)c(C)c1`, the viability, T/C (compound 0.1 µM) was 90.3% [middle of 20 runs]; the viability, T/C (compound 0.316 µM) was 84.6% [middle of 20 runs]; the viability, T/C (compound 1 µM) was 84.5% [middle of 19 runs]; the viability, T/C (compound 3.16 µM) is 77% [middle of 20 runs]; the viability, T/C (compound 10 µM) is 77% [middle of 21 runs]. For the setting “compound alone, run of 06/14/2022”, the IC50 was greater than 10000 nM.
`Nc1ncn(C2CC(O)C(CO)O2)c(=O)n1` (centres undefined) + CC(CO)NC(=O)c1cc(-c2ccc(Cl)cc2)nn(-c2cnn(C)c2)c1=O: the IC50 under setting [1] was greater than 1000 nM; the IC50 under setting [2] was greater than 1000 nM; the IC50 under setting [3] was greater than 1000 nM; the IC50 under setting [4] was greater than 1000 nM; the IC50 under setting [5] is greater than 1000 nM. For the same molecule, the viability, T/C runs as follows: under setting [36], 101%; under setting [37], 79.9%; under setting [6], 76.8%; under setting [7], 72.5%; under setting [8], 81.7%; under setting [9], 82.3%. Further, the viability, T/C under setting [38] was 67.2%; the viability, T/C under setting [39] is 90.2%; the viability, T/C under setting [12] is 101%; the viability, T/C under setting [13] is 76.4%; the viability, T/C under setting [14] is 71.7%; the viability, T/C under setting [15] is 89.7%. Further, the viability, T/C under setting [40] was 90.7%; the viability, T/C under setting [41] is 60.6%; the viability, T/C under setting [18] was 78.8%; the viability, T/C under setting [19] was 72.1%; the viability, T/C under setting [20] was 75.1%; the viability, T/C under setting [21] was 78.8%. Also, the viability, T/C under setting [42] was 83.3%; the viability, T/C under setting [43] was 61.1%; the viability, T/C under setting [24] was 81%; the viability, T/C under setting [25] is 76.8%; the viability, T/C under setting [26] is 56.8%; the viability, T/C under setting [27] is 78.1%. Besides, the viability, T/C under setting [44] was 59%; the viability, T/C under setting [45] is 84.8%; the viability, T/C under setting [30] was 115%; the viability, T/C under setting [31] is 93.1%; the viability, T/C under setting [32] is 75.7%; the viability, T/C under setting [33] was 81.2%.
On to `COc1cccc2c1C(=O)c1c(O)c3c(c(O)c1C2=O)CC(O)(C(=O)CO)CC3OC1CC(N)C(O)C(C)O1` (centres undefined) + CC(CO)NC(=O)c1cc(-c2ccc(Cl)cc2)nn(-c2cnn(C)c2)c1=O, for which the IC50 is 269 nM under setting [1]; 456 nM under setting [2]; 501 nM under setting [3]; 230 nM under setting [4]; 167 nM under setting [5]. In addition, the viability, T/C under setting [6] was 115%; the viability, T/C under setting [7] was 116%; the viability, T/C under setting [8] is 39.2%; the viability, T/C under setting [9] is 4.71%; the viability, T/C under setting [10] is 2.59%; the viability, T/C under setting [11] is 1.67%. For the same molecule, the viability, T/C is 90.5% under setting [12]; 94.2% under setting [13]; 70.9% under setting [14]; 4.94% under setting [15]; 5.79% under setting [16]; 4.67% under setting [17]. In addition, the viability, T/C is, setting by setting: under setting [18], 95.2%; under setting [19], 93.9%; under setting [20], 82.1%; under setting [21], 1.75%; under setting [22], 2.44%; under setting [23], 1.47%. Besides, the viability, T/C is 91.5% under setting [24]; 107% under setting [25]; 31.2% under setting [26]; 3.13% under setting [27]; 3.56% under setting [28]; 0.65% under setting [29]. In addition, the viability, T/C is 113% under setting [30]; 65.8% under setting [31]; 32.6% under setting [32]; 1.76% under setting [33]; 1.75% under setting [34]; 1.1% under setting [35].
For the molecule `Nc1ccn(C2OC(CO)C(O)C2(F)F)c(=O)n1` (centres undefined), the viability, T/C is 28.9% and 105% and 26.2% (compound 0.0316 µM); 28.2% and 135% and 27.1% (compound 0.1 µM); 32% and 64% and 25.9% (compound 0.316 µM); 37% and 80.2% and 30.9% (compound 1 µM); 40.3% and 118% and 35.9% (compound 3.16 µM); 37.1% and 79.3% and 35.7% (compound 10 µM).
